The supplement of paper PMC10307832

Legend:
Assay in all cases: relative viability (nuclei count vs DMSO), 5 days (fraction); higher = more cells survive
Bleomycin + AZD7762 = compound: CC1=C(N=C(N=C1N)[C@H](CC(=O)N)NC[C@@H](C(=O)N)N)C(=O)N[C@@H]([C@H](C2=CN=CN2)OC3C(C(C(C(O3)CO)O)O)OC4C(C(C(C(O4)CO)O)OC(=O)N)O)C(=O)N[C@H](C)[C@H]([C@H](C)C(=O)N[C@@H]([C@@H](C)O)C(=O)NCCC5=NC(=CS5)C6=NC(=CS6)C(=O)NCCC[S+](C)C)O [Bleomycin] + NC(=O)Nc1cc(-c2cccc(F)c2)sc1C(=O)N[C@H]1CCCNC1 [AZD7762] (partner 0.2 µM); settings: main component drawn
How it was run: (§1)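 Values are medians from duplicate plates. Each reflects relative viability, defined as the nuclei count of treated wells over that of vehicle wells. Lung cancer cell lines in 1536-well plates were pin-tool dosed one day after seeding with one drug alone or with a fixed anchor-drug dose plus five library-drug doses (not always all listed) in √10 steps, then fixed, stained and imaged at 4× after 5 days.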

Bleomycin + Tozasertib = compound: CC1=C(N=C(N=C1N)[C@H](CC(=O)N)NC[C@@H](C(=O)N)N)C(=O)N[C@@H]([C@H](C2=CN=CN2)OC3C(C(C(C(O3)CO)O)O)OC4C(C(C(C(O4)CO)O)OC(=O)N)O)C(=O)N[C@H](C)[C@H]([C@H](C)C(=O)N[C@@H]([C@@H](C)O)C(=O)NCCC5=NC(=CS5)C6=NC(=CS6)C(=O)NCCC[S+](C)C)O [Bleomycin] + Cc1cc(Nc2cc(N3CCN(C)CC3)nc(Sc3ccc(NC(=O)C4CC4)cc3)n2)n[nH]1 [Tozasertib] (partner 0.1 µM); settings: main component drawn
How it was run: as §1

Bleomycin + Pemetrexed = compound: CC1=C(N=C(N=C1N)[C@H](CC(=O)N)NC[C@@H](C(=O)N)N)C(=O)N[C@@H]([C@H](C2=CN=CN2)OC3C(C(C(C(O3)CO)O)O)OC4C(C(C(C(O4)CO)O)OC(=O)N)O)C(=O)N[C@H](C)[C@H]([C@H](C)C(=O)N[C@@H]([C@@H](C)O)C(=O)NCCC5=NC(=CS5)C6=NC(=CS6)C(=O)NCCC[S+](C)C)O [Bleomycin] + Nc1nc2[nH]cc(CCc3ccc(C(=O)N[C@@H](CCC(=O)O)C(=O)O)cc3)c2c(=O)[nH]1 [Pemetrexed] (partner 0.2 µM); settings: main component drawn
How it was run: as §1

Etoposide + Phenformin = compound: COc1cc([C@@H]2c3cc4c(cc3[C@@H](O[C@@H]3O[C@@H]5CO[C@@H](C)O[C@H]5[C@H](O)[C@H]3O)[C@H]3COC(=O)[C@H]23)OCO4)cc(OC)c1O [Etoposide] + N=C(N)NC(=N)NCCc1ccccc1 [Phenformin] (partner 250 µM)
How it was run: as §1

For NCI-H1648, the relative viability (Bleomycin + AZD7762; first compound 0.01 µM) was 0.623, the relative viability (Bleomycin + AZD7762; first compound 0.03162 µM) was 0.716 and the relative viability (Bleomycin + AZD7762; first compound 0.1 µM) was 0.512. It also gave a relative viability (Bleomycin + AZD7762; first compound 0.3162 µM) of 0.373, a relative viability (Bleomycin + AZD7762; first compound 1 µM) of 0.375 and a relative viability (Bleomycin + Tozasertib; first compound 0.01 µM) of 0.383. It also gave a relative viability (Bleomycin + Tozasertib; first compound 0.1 µM) of 0.401, a relative viability (Bleomycin + Tozasertib; first compound 0.3162 µM) of 0.405 and a relative viability (Bleomycin + Tozasertib; first compound 1 µM) of 0.379. The relative viability (Bleomycin + Pemetrexed; first compound 0.01 µM) was 0.669, the relative viability (Bleomycin + Pemetrexed; first compound 0.03162 µM) was 0.614 and the relative viability (Bleomycin + Pemetrexed; first compound 0.1 µM) was 0.508. It also gave a relative viability (Bleomycin + Pemetrexed; first compound 0.3162 µM) of 0.483 and a relative viability (Bleomycin + Pemetrexed; first compound 1 µM) of 0.469.
Cell Line NCI-H1650 has a relative viability (Bleomycin + Tozasertib; first compound 0.01 µM) of 0.307, a relative viability (Bleomycin + Tozasertib; first compound 0.03162 µM) of 0.234 and a relative viability (Bleomycin + Tozasertib; first compound 0.1 µM) of 0.213. For the same cell line, the relative viability (Bleomycin + Tozasertib; first compound 0.3162 µM) was 0.189, the relative viability (Bleomycin + Tozasertib; first compound 1 µM) was 0.178 and the relative viability (Bleomycin + Pemetrexed; first compound 0.01 µM) was 0.358. For the same cell line, the relative viability (Bleomycin + Pemetrexed; first compound 0.03162 µM) was 0.214, the relative viability (Bleomycin + Pemetrexed; first compound 0.1 µM) was 0.189 and the relative viability (Bleomycin + Pemetrexed; first compound 0.3162 µM) was 0.15. It also gave a relative viability (Bleomycin + Pemetrexed; first compound 1 µM) of 0.128, a relative viability (Etoposide + Phenformin; first compound 0.01 µM) of 0.421 and a relative viability (Etoposide + Phenformin; first compound 0.03162 µM) of 0.31. The relative viability (Etoposide + Phenformin; first compound 0.1 µM) was 0.374, the relative viability (Etoposide + Phenformin; first compound 0.3162 µM) was 0.194 and the relative viability (Etoposide + Phenformin; first compound 1 µM) was 0.141.
NCI-H1703 gave a relative viability (Bleomycin + AZD7762; first compound 0.01 µM) of 0.131, a relative viability (Bleomycin + AZD7762; first compound 0.03162 µM) of 0.139 and a relative viability (Bleomycin + AZD7762; first compound 0.1 µM) of 0.128. For the same cell line, the relative viability (Bleomycin + AZD7762; first compound 0.3162 µM) was 0.122 and the relative viability (Bleomycin + AZD7762; first compound 1 µM) was 0.114.
NCI-H1792 was tested, and the relative viability (Bleomycin + AZD7762; first compound 0.01 µM) was 0.615, the relative viability (Bleomycin + AZD7762; first compound 0.03162 µM) was 0.635 and the relative viability (Bleomycin + AZD7762; first compound 0.1 µM) was 0.716. For the same cell line, the relative viability (Bleomycin + AZD7762; first compound 0.3162 µM) was 0.253, the relative viability (Bleomycin + AZD7762; first compound 1 µM) was 0.141 and the relative viability (Bleomycin + Pemetrexed; first compound 0.01 µM) was 0.71. For the same cell line, the relative viability (Bleomycin + Pemetrexed; first compound 0.03162 µM) was 0.756, the relative viability (Bleomycin + Pemetrexed; first compound 0.1 µM) was 0.87 and the relative viability (Bleomycin + Pemetrexed; first compound 0.3162 µM) was 0.426. It also gave a relative viability (Bleomycin + Pemetrexed; first compound 1 µM) of 0.312, a relative viability (Etoposide + Phenformin; first compound 0.01 µM) of 0.177 and a relative viability (Etoposide + Phenformin; first compound 0.03162 µM) of 0.189. For the same cell line, the relative viability (Etoposide + Phenformin; first compound 0.3162 µM) was 0.257 and the relative viability (Etoposide + Phenformin; first compound 1 µM) was 0.0965.
NCI-H2009 was tested, and the relative viability (Bleomycin + Tozasertib; first compound 0.01 µM) was 0.717, the relative viability (Bleomycin + Tozasertib; first compound 0.03162 µM) was 0.789 and the relative viability (Bleomycin + Tozasertib; first compound 0.1 µM) was 0.701. For the same cell line, the relative viability (Bleomycin + Tozasertib; first compound 0.3162 µM) was 0.424, the relative viability (Bleomycin + Tozasertib; first compound 1 µM) was 0.351 and the relative viability (Bleomycin + Pemetrexed; first compound 0.01 µM) was 0.889. The relative viability (Bleomycin + Pemetrexed; first compound 0.03162 µM) was 1.03, the relative viability (Bleomycin + Pemetrexed; first compound 0.1 µM) was 1.04 and the relative viability (Bleomycin + Pemetrexed; first compound 0.3162 µM) was 0.736. The relative viability (Bleomycin + Pemetrexed; first compound 1 µM) was 0.503, the relative viability (Etoposide + Phenformin; first compound 0.01 µM) was 0.492 and the relative viability (Etoposide + Phenformin; first compound 0.03162 µM) was 0.505. For the same cell line, the relative viability (Etoposide + Phenformin; first compound 0.1 µM) was 0.492, the relative viability (Etoposide + Phenformin; first compound 0.3162 µM) was 0.416 and the relative viability (Etoposide + Phenformin; first compound 1 µM) was 0.342.
With NCI-H2023 the relative viability (Bleomycin + Tozasertib; first compound 0.01 µM) was 0.237, the relative viability (Bleomycin + Tozasertib; first compound 0.03162 µM) was 0.283 and the relative viability (Bleomycin + Tozasertib; first compound 0.1 µM) was 0.222. It also gave a relative viability (Bleomycin + Tozasertib; first compound 0.3162 µM) of 0.116, a relative viability (Bleomycin + Tozasertib; first compound 1 µM) of 0.109 and a relative viability (Bleomycin + Pemetrexed; first compound 0.01 µM) of 0.178. The relative viability (Bleomycin + Pemetrexed; first compound 0.03162 µM) was 0.204, the relative viability (Bleomycin + Pemetrexed; first compound 0.1 µM) was 0.157 and the relative viability (Bleomycin + Pemetrexed; first compound 0.3162 µM) was 0.136. The relative viability (Bleomycin + Pemetrexed; first compound 1 µM) was 0.0973, the relative viability (Etoposide + Phenformin; first compound 0.01 µM) was 0.403 and the relative viability (Etoposide + Phenformin; first compound 0.03162 µM) was 0.385. The relative viability (Etoposide + Phenformin; first compound 0.1 µM) was 0.307, the relative viability (Etoposide + Phenformin; first compound 0.3162 µM) was 0.198 and the relative viability (Etoposide + Phenformin; first compound 1 µM) was 0.107.
Work on NCI-H2228 yielded a relative viability (Bleomycin + Tozasertib; first compound 0.01 µM) of 0.216, a relative viability (Bleomycin + Tozasertib; first compound 0.03162 µM) of 0.248 and a relative viability (Bleomycin + Tozasertib; first compound 0.1 µM) of 0.218. The relative viability (Bleomycin + Tozasertib; first compound 0.3162 µM) was 0.12, the relative viability (Bleomycin + Tozasertib; first compound 1 µM) was 0.137 and the relative viability (Bleomycin + Pemetrexed; first compound 0.01 µM) was 0.317. It also gave a relative viability (Bleomycin + Pemetrexed; first compound 0.03162 µM) of 0.291, a relative viability (Bleomycin + Pemetrexed; first compound 0.1 µM) of 0.263 and a relative viability (Bleomycin + Pemetrexed; first compound 0.3162 µM) of 0.199. It also gave a relative viability (Bleomycin + Pemetrexed; first compound 1 µM) of 0.185, a relative viability (Etoposide + Phenformin; first compound 0.01 µM) of 0.39 and a relative viability (Etoposide + Phenformin; first compound 0.03162 µM) of 0.348. The relative viability (Etoposide + Phenformin; first compound 0.1 µM) was 0.224, the relative viability (Etoposide + Phenformin; first compound 0.3162 µM) was 0.176 and the relative viability (Etoposide + Phenformin; first compound 1 µM) was 0.102.
SK-LU-1 gave a relative viability (Bleomycin + Tozasertib; first compound 0.01 µM) of 0.295, a relative viability (Bleomycin + Tozasertib; first compound 0.03162 µM) of 0.35 and a relative viability (Bleomycin + Tozasertib; first compound 0.1 µM) of 0.363. It also gave a relative viability (Bleomycin + Tozasertib; first compound 0.3162 µM) of 0.235, a relative viability (Bleomycin + Tozasertib; first compound 1 µM) of 0.215 and a relative viability (Bleomycin + Pemetrexed; first compound 0.01 µM) of 0.934. For the same cell line, the relative viability (Bleomycin + Pemetrexed; first compound 0.03162 µM) was 1.04, the relative viability (Bleomycin + Pemetrexed; first compound 0.1 µM) was 0.965 and the relative viability (Bleomycin + Pemetrexed; first compound 0.3162 µM) was 0.473. The relative viability (Bleomycin + Pemetrexed; first compound 1 µM) was 0.465, the relative viability (Etoposide + Phenformin; first compound 0.01 µM) was 0.476 and the relative viability (Etoposide + Phenformin; first compound 0.03162 µM) was 0.605. For the same cell line, the relative viability (Etoposide + Phenformin; first compound 0.1 µM) was 0.322, the relative viability (Etoposide + Phenformin; first compound 0.3162 µM) was 0.224 and the relative viability (Etoposide + Phenformin; first compound 1 µM) was 0.183.
Work on SK-MES-1 yielded a relative viability (Bleomycin + Tozasertib; first compound 0.01 µM) of 0.531, a relative viability (Bleomycin + Tozasertib; first compound 0.03162 µM) of 0.542 and a relative viability (Bleomycin + Tozasertib; first compound 0.1 µM) of 0.35. The relative viability (Bleomycin + Tozasertib; first compound 0.3162 µM) was 0.15, the relative viability (Bleomycin + Tozasertib; first compound 1 µM) was 0.134 and the relative viability (Bleomycin + Pemetrexed; first compound 0.01 µM) was 0.767. It also gave a relative viability (Bleomycin + Pemetrexed; first compound 0.03162 µM) of 0.899, a relative viability (Bleomycin + Pemetrexed; first compound 0.1 µM) of 0.807 and a relative viability (Bleomycin + Pemetrexed; first compound 0.3162 µM) of 0.379. The relative viability (Bleomycin + Pemetrexed; first compound 1 µM) was 0.213, the relative viability (Etoposide + Phenformin; first compound 0.01 µM) was 0.654 and the relative viability (Etoposide + Phenformin; first compound 0.03162 µM) was 0.683. The relative viability (Etoposide + Phenformin; first compound 0.1 µM) was 0.582, the relative viability (Etoposide + Phenformin; first compound 0.3162 µM) was 0.402 and the relative viability (Etoposide + Phenformin; first compound 1 µM) was 0.248.
In the case of SW 1573, the relative viability (Bleomycin + Tozasertib; first compound 0.01 µM) is reported as 0.141, the relative viability (Bleomycin + Tozasertib; first compound 0.03162 µM) is reported as 0.184 and the relative viability (Bleomycin + Tozasertib; first compound 0.1 µM) is reported as 0.17. It also gave a relative viability (Bleomycin + Tozasertib; first compound 0.3162 µM) of 0.129, a relative viability (Bleomycin + Tozasertib; first compound 1 µM) of 0.161 and a relative viability (Bleomycin + Pemetrexed; first compound 0.01 µM) of 0.755. The relative viability (Bleomycin + Pemetrexed; first compound 0.03162 µM) was 0.691, the relative viability (Bleomycin + Pemetrexed; first compound 0.1 µM) was 0.572 and the relative viability (Bleomycin + Pemetrexed; first compound 0.3162 µM) was 0.44. For the same cell line, the relative viability (Bleomycin + Pemetrexed; first compound 1 µM) was 0.225, the relative viability (Etoposide + Phenformin; first compound 0.01 µM) was 0.341 and the relative viability (Etoposide + Phenformin; first compound 0.03162 µM) was 0.36. The relative viability (Etoposide + Phenformin; first compound 0.1 µM) was 0.255, the relative viability (Etoposide + Phenformin; first compound 0.3162 µM) was 0.183 and the relative viability (Etoposide + Phenformin; first compound 1 µM) was 0.142.
